Measurements: patent publication US5446060A, “Aminoalkyl thienyl ketone derivatives and their use as peripheral vasodilators” (Laboratoire L. Lafon, priority 1990, dated 1995)
Structures can show the parent of a compound that is named as a salt. Where two headings read alike, the source gives them in different places. Values belong to the compound of their own block, whether it stands above or below them.

Columns and labels:
Solubility in water = format: physicochemical; conditions: for solubility: read-out: solubility in water (concentration)
femoral flow rate = test: Cardiovascular activity, compounds administered intravenously in anaesthetised dogs (femoral flow rate); format: in vivo; conditions: intravenous; for increase in femoral flow rate: 4 mg/kg; for minimal effective dose: Canis lupus familiaris, read-out: dose at and above which femoral flow rate is significantly increased
Description: (§1) The activity of the compounds administered intravenously was studied in anaesthetised dogs.

ATP in fresh blood = test: Effects on ATP in fresh blood measured ex vivo by 31P NMR spectroscopy
Protocol: The effects of the compounds on the ATP in fresh blood were measured ex vivo by ^31 p NMR spectroscopy.
The results are given in the table below in the form of percentage changes.

[1] = Acute toxicity determined orally in mice; conditions: mouse, in vivo; oral, mice (NMRI)
Protocol: The acute toxicity was determined orally in mice (NMRI).

[2] = test system: microcirculation of the chamber of the rabbit's ear; test: Activity with respect to the microcirculation of the chamber of the rabbit's ear; format: in vivo; conditions: 1 mg/kg I.V.
Description: The activity of the compounds administered intravenously with respect to the microcirculation of the chamber of the rabbit's ear was studied.

arterial blood pressure = test: Cardiovascular activity, compounds administered intravenously in anaesthetised dogs (arterial blood pressure); format: in vivo; conditions: intravenous
Description: as §1

solubility in water (in words) (Solubility in water): water-soluble
Structure (SMILES): O=C(CCCN1CCCC1)c1ccsc1 [Example 8, 4-pyrrolidino-1-(3-thienyl)butanone hydrochloride]

Structure (SMILES): O=C(CCCN1CCCCC1)c1cccs1 [Example 12, 4-piperidino-1-(2-thienyl)butanone 2,4,6-trimethoxybenzoate]
solubility in water (in words) (Solubility in water): soluble in water on heating

Structure (SMILES): O=C(CCCN1CCCC1)c1cccs1 [Example 11, 4-pyrrolidino-1-(2-thienyl)butanone 2,4,6-trimethoxybenzoate]
solubility in water (in words) (Solubility in water): soluble in water on heating

solubility in water (in words) (Solubility in water): water-soluble
Structure (SMILES): O=C(CCCN1CCOCC1)c1cccs1 [Example 4, 4-morpholino-l-(2-thienyl)butanone hydrochloride]

solubility in water (in words) (Solubility in water): water-soluble
Structure (SMILES): O=C(CCCn1ccnc1)c1cccs1 [Example 6, 4-(1-imidazolyl)-1-(2-thienyl)butanone hydrochloride]

solubility in water (in words) (Solubility in water): water-soluble
Structure (SMILES): O=C(CCCN1CCCC(CO)C1)c1cccs1 (stereo not drawn) [Example 5, 4-[3-(hydroxymethyl)piperidino]-1-(2-thienyl) butanone hydrochloride]

Structure (SMILES): COc1cc(OC)c(C(=O)CCCN2CCCC2)c(OC)c1 [buflomedil, reference compound]
increase in femoral flow rate (femoral flow rate): 106%
change in ATP level (ATP in fresh blood): did not reveal any change in ATP level

solubility in water (in words) (Solubility in water): water-soluble
Structure (SMILES): CC1CCCN(CCCC(=O)c2ccsc2)C1 (stereo not drawn) [Example 10, 4-(3-methylpiperidino)-1-(3thienyl)butanone hydrochloride]

Structure (SMILES): CC1CCCN(CCCC(=O)c2cccs2)C1 (stereo not drawn) [Example 3, 4-(3-methylpiperidino)-1-(2-thienyl)butanone hydrochloride]
LD50 [1]: 207 ± 29 mg/kg
percentage change in αATP (ATP in fresh blood): +54.2%
percentage change in βATP (ATP in fresh blood): +54.6%
percentage change in γATP (ATP in fresh blood): +34.7%
solubility (Solubility in water): 200 mg/mL

solubility in water (in words) (Solubility in water): water-soluble
Structure (SMILES): O=C(CCCN1CCCCCC1)c1ccsc1 [Example 9, 4-hexamethylenimino-1-(3-thienyl)butanone hydrochloride]

Structure (SMILES): O=C(CCCN1CCCCCC1)c1cccs1 [Example 7, 4-hexamethylenimino-1-(2-thienyl)butanone hydrochloride]
LD50 [1]: 131 ± 15 mg/kg
increase in femoral flow rate (in words) (femoral flow rate; 1.14 mg/kg and above): significant and longlasting increase
minimal effective dose (femoral flow rate): ≥ 1.14 mg/kg
increase in femoral flow rate compared with buflomedil at 4 mg/kg (femoral flow rate; dose of 1.14 mg/kg and above): larger than that observed with buflomedil at a dose of 4 mg/kg
increase in non-terminal arteriolar diameter [2]: significant and long-lasting increase
solubility in water (in words) (Solubility in water): watersoluble

Structure (SMILES): O=C(CCCN1CCCC1)c1cccs1 [Example 1, 4-pyrrolidino-l-(2-thienyl)butanone hydrochloride]
LD50 [1]: 121 ± 10 mg/kg
increase in femoral flow rate (femoral flow rate): 170%
minimal effective dose (femoral flow rate): ≥ 1 mg/kg
change in arterial blood pressure (arterial blood pressure; even at 4 mg/kg): no significant change
increase in non-terminal arteriolar diameter [2]: significant and long-lasting increase
percentage change in αATP (ATP in fresh blood): +41.4%
percentage change in βATP (ATP in fresh blood): +31.2%
percentage change in γATP (ATP in fresh blood): +36.7%
solubility (Solubility in water): 200 mg/mL

Structure (SMILES): O=C(CCCN1CCCCC1)c1cccs1 [Example 2, 4-piperidino-l-(2-thienyl)butanone hydrochloride]
LD50 [1]: 235 ± 35 mg/kg
increase in femoral flow rate compared with buflomedil at 4 mg/kg (femoral flow rate; 2 mg/kg): same intensity as buflomedil at a dose of 4 mg/kg
minimal effective dose (femoral flow rate): ≥ 1 mg/kg
duration of effect on femoral flow rate compared with buflomedil (femoral flow rate): longer-lasting than that of buflomedil
change in arterial blood pressure (arterial blood pressure; 2 mg/kg): without modifying arterial blood pressure
solubility in water (in words) (Solubility in water; hydrochloride): water-soluble
